ChEMBL document CHEMBL6177998, “Rational Design of Dual Degraders by Incorporating Molecular Glue Structural Features into PROTAC Degraders” (J Med Chem, 2025)
Active and inactive are the calls of the source. The rule behind the calls is not given here.

Columns and labels:
Assay type in all cases: cell-based
[1] = test system: Protein cereblon/Androgen receptor (Homo sapiens), P10275+Q96SW2 [UNDEFINED MUTATION]; assay: PROTAC activity at CRBN/Androgen receptor splice variant 7 in human VCaP cells assessed as induction of AR-V7 degradation at 0.01 uM incubated for 24 hrs by Western blot analysis relative to control
[2] = biological target: T1, Protein cereblon/Androgen receptor (Homo sapiens, UniProt P10275+Q96SW2); assay: PROTAC activity at CRBN/AR in human VCaP cells assessed as induction of AR degradation at 0.1 uM incubated for 24 hrs by Western blot analysis relative to control
[3] = biological target: T2, Protein cereblon/Eukaryotic peptide chain release factor GTP-binding subunit ERF3A (Homo sapiens, UniProt Q96SW2+P15170); assay: Molecular glue activity at CRBN/GSPT1 in human 22Rv1 cells assessed as induction of GSPT1 degradation at 0.01 uM incubated for 24 hrs by Western blot analysis relative to control
[4] = biological target: T2, Protein cereblon/Eukaryotic peptide chain release factor GTP-binding subunit ERF3A; assay: Molecular glue activity at CRBN/GSPT1 in human 22Rv1 cells assessed as induction of GSPT1 degradation at 0.1 uM incubated for 24 hrs by Western blot analysis relative to control
[5] = test system: Protein cereblon/Androgen receptor (Homo sapiens), P10275+Q96SW2 [UNDEFINED MUTATION]; assay: PROTAC activity at CRBN/Androgen receptor splice variant 7 in human 22Rv1 cells assessed as induction of AR-V7 degradation at 0.01 uM incubated for 24 hrs by Western blot analysis relative to control
[6] = biological target: T1, Protein cereblon/Androgen receptor; assay: PROTAC activity at CRBN/AR in human 22Rv1 cells assessed as induction of AR degradation at 0.01 uM incubated for 24 hrs by Western blot analysis relative to control
[7] = biological target: T1, Protein cereblon/Androgen receptor; assay: PROTAC activity at CRBN/AR in human VCaP cells assessed as induction of AR degradation at 0.01 uM incubated for 24 hrs by Western blot analysis relative to control
[8] = test system: Protein cereblon/Androgen receptor (Homo sapiens), P10275+Q96SW2 [UNDEFINED MUTATION]; assay: PROTAC activity at CRBN/Androgen receptor splice variant 7 in human VCaP cells assessed as induction of AR-V7 degradation at 0.1 uM incubated for 24 hrs by Western blot analysis relative to control
[9] = biological target: T1, Protein cereblon/Androgen receptor; assay: PROTAC activity at CRBN/AR in human 22Rv1 cells assessed as induction of AR degradation at 0.1 uM incubated for 24 hrs by Western blot analysis relative to control
[10] = test system: Protein cereblon/Androgen receptor (Homo sapiens), P10275+Q96SW2 [UNDEFINED MUTATION]; assay: PROTAC activity at CRBN/Androgen receptor splice variant 7 in human 22Rv1 cells assessed as induction of AR-V7 degradation at 0.1 uM incubated for 24 hrs by Western blot analysis relative to control
[11] = biological target: T3, Androgen receptor (Homo sapiens) (UniProt P10275); assay: Binding affinity to Androgen receptor in human 22Rv1 cells incubated for 6 hrs by streptavidin pull down based immunoprecipitation analysis
T3 sequence (whole entry): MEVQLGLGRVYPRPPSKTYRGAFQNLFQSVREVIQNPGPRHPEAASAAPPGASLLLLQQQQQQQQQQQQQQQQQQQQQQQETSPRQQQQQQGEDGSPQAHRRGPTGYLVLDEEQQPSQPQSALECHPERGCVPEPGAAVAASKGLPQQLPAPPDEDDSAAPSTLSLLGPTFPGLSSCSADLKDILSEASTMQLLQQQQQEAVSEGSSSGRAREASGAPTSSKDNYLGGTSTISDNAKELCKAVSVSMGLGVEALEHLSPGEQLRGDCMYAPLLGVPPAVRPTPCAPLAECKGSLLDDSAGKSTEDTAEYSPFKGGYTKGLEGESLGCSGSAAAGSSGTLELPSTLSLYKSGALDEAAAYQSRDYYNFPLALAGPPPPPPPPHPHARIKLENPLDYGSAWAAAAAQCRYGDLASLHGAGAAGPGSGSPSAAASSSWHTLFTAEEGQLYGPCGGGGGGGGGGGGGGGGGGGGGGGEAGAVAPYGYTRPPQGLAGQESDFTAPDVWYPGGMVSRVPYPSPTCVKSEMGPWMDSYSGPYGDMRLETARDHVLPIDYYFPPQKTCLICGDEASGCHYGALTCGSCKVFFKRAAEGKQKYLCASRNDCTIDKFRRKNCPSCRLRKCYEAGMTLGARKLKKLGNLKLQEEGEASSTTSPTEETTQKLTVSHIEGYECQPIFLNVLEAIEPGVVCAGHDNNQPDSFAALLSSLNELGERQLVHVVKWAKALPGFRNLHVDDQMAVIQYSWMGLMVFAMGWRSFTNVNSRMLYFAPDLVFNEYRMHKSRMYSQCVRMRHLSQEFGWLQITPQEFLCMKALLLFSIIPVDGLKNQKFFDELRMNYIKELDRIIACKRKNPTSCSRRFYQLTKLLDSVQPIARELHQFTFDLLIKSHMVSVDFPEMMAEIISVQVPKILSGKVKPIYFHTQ

[12] = biological target: T2, Protein cereblon/Eukaryotic peptide chain release factor GTP-binding subunit ERF3A; assay: Molecular glue activity at CRBN/GSPT1 in human 22Rv1 cells assessed as induction of GSPT1 degradation at 1 uM incubated for 24 hrs by Western blot analysis relative to control
[13] = biological target: T1, Protein cereblon/Androgen receptor; assay: PROTAC activity at CRBN/AR in human 22Rv1 cells assessed as induction of AR degradation at 1 uM incubated for 24 hrs by Western blot analysis relative to control
[14] = test system: Protein cereblon/Androgen receptor (Homo sapiens), P10275+Q96SW2 [UNDEFINED MUTATION]; assay: PROTAC activity at CRBN/Androgen receptor splice variant 7 in human VCaP cells assessed as induction of AR-V7 degradation at 5 uM incubated for 24 hrs by Western blot analysis relative to control
[15] = biological target: T1, Protein cereblon/Androgen receptor; assay: PROTAC activity at CRBN/AR in human 22Rv1 cells assessed as induction of AR degradation at 5 uM incubated for 24 hrs by Western blot analysis relative to control
[16] = test system: Protein cereblon/Androgen receptor (Homo sapiens), P10275+Q96SW2 [UNDEFINED MUTATION]; assay: PROTAC activity at CRBN/Androgen receptor splice variant 7 in human VCaP cells assessed as induction of AR-V7 degradation at 1 uM incubated for 24 hrs by Western blot analysis relative to control
[17] = test system: Protein cereblon/Androgen receptor (Homo sapiens), P10275+Q96SW2 [UNDEFINED MUTATION]; assay: PROTAC activity at CRBN/Androgen receptor splice variant 7 in human 22Rv1 cells assessed as induction of AR-V7 degradation at 1 uM incubated for 24 hrs by Western blot analysis relative to control
[18] = biological target: T1, Protein cereblon/Androgen receptor; assay: PROTAC activity at CRBN/AR in human VCaP cells assessed as induction of AR degradation at 5 uM incubated for 24 hrs by Western blot analysis relative to control
[19] = test system: Protein cereblon/Androgen receptor (Homo sapiens), P10275+Q96SW2 [UNDEFINED MUTATION]; assay: PROTAC activity at CRBN/Androgen receptor splice variant 7 in human 22Rv1 cells assessed as induction of AR-V7 degradation at 5 uM incubated for 24 hrs by Western blot analysis relative to control
[20] = biological target: T2, Protein cereblon/Eukaryotic peptide chain release factor GTP-binding subunit ERF3A; assay: Molecular glue activity at CRBN/GSPT1 in human 22Rv1 cells assessed as induction of GSPT1 degradation at 5 uM incubated for 24 hrs by Western blot analysis relative to control
[21] = biological target: T1, Protein cereblon/Androgen receptor; assay: PROTAC activity at CRBN/AR in human VCaP cells assessed as induction of AR degradation at 1 uM incubated for 24 hrs by Western blot analysis relative to control

T2 sequence (P15170 whole entry, looked up): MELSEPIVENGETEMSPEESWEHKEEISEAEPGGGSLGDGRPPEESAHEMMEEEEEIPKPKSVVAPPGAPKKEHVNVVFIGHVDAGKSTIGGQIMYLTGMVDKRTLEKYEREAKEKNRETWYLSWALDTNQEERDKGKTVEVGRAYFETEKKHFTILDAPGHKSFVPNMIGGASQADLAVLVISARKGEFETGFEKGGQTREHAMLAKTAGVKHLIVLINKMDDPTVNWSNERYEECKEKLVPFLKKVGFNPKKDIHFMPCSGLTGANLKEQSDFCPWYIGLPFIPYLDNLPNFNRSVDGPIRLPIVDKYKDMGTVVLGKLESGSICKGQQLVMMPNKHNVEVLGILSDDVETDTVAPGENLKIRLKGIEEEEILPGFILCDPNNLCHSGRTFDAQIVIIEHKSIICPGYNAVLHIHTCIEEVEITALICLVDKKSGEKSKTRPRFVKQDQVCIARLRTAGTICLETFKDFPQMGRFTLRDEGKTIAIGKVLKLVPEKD
T2 sequence (Q96SW2 whole entry, looked up): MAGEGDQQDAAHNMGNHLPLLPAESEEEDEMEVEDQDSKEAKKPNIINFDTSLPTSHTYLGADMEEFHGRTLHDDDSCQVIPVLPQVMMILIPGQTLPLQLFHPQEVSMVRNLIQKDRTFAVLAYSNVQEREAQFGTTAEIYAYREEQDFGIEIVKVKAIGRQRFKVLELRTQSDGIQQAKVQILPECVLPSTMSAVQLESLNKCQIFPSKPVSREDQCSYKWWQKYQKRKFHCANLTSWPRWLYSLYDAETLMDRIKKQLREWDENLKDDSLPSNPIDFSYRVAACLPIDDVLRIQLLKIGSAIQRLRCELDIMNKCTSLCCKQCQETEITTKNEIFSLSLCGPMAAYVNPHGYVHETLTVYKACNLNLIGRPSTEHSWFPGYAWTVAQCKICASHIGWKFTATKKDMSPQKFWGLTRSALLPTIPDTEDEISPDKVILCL
Sequence of Protein cereblon/Androgen receptor (Homo sapiens), P10275+Q96SW2 [UNDEFINED MUTATION] (Q96SW2 whole entry, looked up, change not shown, one chain of several, canonical isoform): as the sequence (Q96SW2 whole entry, looked up) above
T1 sequence (Q96SW2 whole entry, looked up, one chain of several): as the sequence (Q96SW2 whole entry, looked up) above

Row | Compound | Activity [1] [%] | Activity [2] [%] | Activity [3] [%] | Activity [4] [%] | Activity [5] [%] | Activity [6] [%] | Activity [7] [%] | Activity [8] [%] | Activity [9] [%] | Activity [10] [%] | further results
1 | CC(C)(c1ccc(OCc2ccccc2)cc1)c1cc(Cl)c(OCC2CCN(C(=O)CCCCCNc3ccc4c(c3)C(=O)N(C3CCC(=O)NC3=O)C4=O)CC2)c(C#N)c1 (stereo unspecified) | < 5 | 21.7 | 81.5 | 97.3 | < 5 | < 5 | < 5 | 21.1 | 50.1 | 58.5 | –
2 | CC(C)(c1ccc(OCC2COC2)cc1)c1cc(Cl)c(OCC2CCN(C(=O)CCCCCNc3ccc4c(c3)C(=O)N(C3CCC(=O)NC3=O)C4=O)CC2)c(C#N)c1 (stereo unspecified) | 34.8 | 81.2 | 96.8 | 96.5 | 64.2 | 78.3 | 82.5 | 27.8 | 67.1 | 71 | –
3 | CC(C)(c1ccc(OCc2cncnc2)cc1)c1cc(Cl)c(OCC2CCN(C(=O)CCCCCNc3ccc4c(c3)C(=O)N(C3CCC(=O)NC3=O)C4=O)CC2)c(C#N)c1 (stereo unspecified) | 84.2 | 74.7 | 97.6 | 97.5 | 75.2 | 80.3 | 72.4 | 94 | 85.7 | 74.7 | –
4 | COc1ccc(C(C)(C)c2cc(Cl)c(OCC3CCN(C(=O)CCCCCNc4ccc5c(c4)C(=O)N(C4CCC(=O)NC4=O)C5=O)CC3)c(Cl)c2)cc1 (stereo unspecified) | < 5 | 69.8 | 72.9 | 93.3 | 11.5 | 39.7 | < 5 | 69.1 | 72.9 | 57.3 | –
5 | CC(C)(c1ccc(OCC2CCOC2)cc1)c1cc(Cl)c(OCC2CCN(C(=O)CCCCCNc3ccc4c(c3)C(=O)N(C3CCC(=O)NC3=O)C4=O)CC2)c(C#N)c1 (stereo unspecified) | 43.6 | 85.1 | 96.6 | 96.1 | 76.8 | 72.5 | 83.9 | 40.1 | 73.5 | 89.1 | –
6 | COc1ccc(C(C)(C)c2cc(Cl)c(OCC3CCN(C(=O)CCCCCNc4cc5c(cc4F)C(=O)N(C4CCC(=O)NC4=O)C5=O)CC3)c(C#N)c2)cc1 (stereo unspecified) | < 5 | 17.3 | 74.6 | 88.6 | < 5 | < 5 | 25.1 | 10 | < 5 | 25.2 | –
7 | CC(C)(c1ccc(OCCCCl)cc1)c1ccc(OCC2CCN(C(=O)CCCCCNc3ccc4c(c3)C(=O)N(C3CCC(=O)NC3=O)C4=O)CC2)cc1 (stereo unspecified) | < 5 | < 5 | 37.3 | 92.8 | < 5 | 13.9 | < 5 | 28.6 | 30 | 5.1 | –
8 | COc1ccc(C(C)(C)c2cc(Cl)c(OCC3CCN(C(=O)CCCCCNc4ccc(C(=O)N[C@H]5CCC(=O)NC5=O)c(F)c4)CC3)c(C#N)c2)cc1 | < 5 | < 5 | < 5 | < 5 | 14.5 | 23.9 | 15.7 | < 5 | < 5 | < 5 | –
9 | COc1ccc(C(C)(C)c2cc(Cl)c(OCC3CCN(C(=O)CCCC[C@@H]4SC[C@@H]5NC(=O)N[C@@H]54)CC3)c(C#N)c2)cc1 | – | – | – | – | – | – | – | – | – | – | Activity [11]: Active
10 | CC1(COc2ccc(C(C)(C)c3cc(Cl)c(OCC4CCN(C(=O)CCCCCNc5ccc6c(c5)C(=O)N(C5CCC(=O)NC5=O)C6=O)CC4)c(C#N)c3)cc2)COC1 (stereo unspecified) | 49.5 | 78.1 | 95.3 | 96.1 | 68.6 | 66.4 | 78.7 | 29.8 | 80.8 | 75 | –
11 | CC(C)(c1ccc(OCc2ccncn2)cc1)c1cc(Cl)c(OCC2CCN(C(=O)CCCCCNc3ccc4c(c3)C(=O)N(C3CCC(=O)NC3=O)C4=O)CC2)c(C#N)c1 (stereo unspecified) | 72.3 | 58.8 | 97.5 | 97.2 | 75.5 | 75.1 | 61.3 | 84.5 | 80.5 | 77.7 | –
12 | CC(C)(c1ccc(OCC2CCN(C(=O)CCCCCNc3ccc4c(c3)C(=O)N(C3CCC(=O)NC3=O)C4=O)CC2)cc1)c1ccc(OC[C@H](O)CCl)cc1 (stereo partly specified) | 49.9 | 92.2 | 80.3 | 94.2 | 32.8 | 31.4 | 17.1 | 80.7 | 77.4 | 53.2 | Activity [12]: 94.5%; Activity [13]: 69.8%; Activity [14]: 42%; Activity [15]: 75%; Activity [16]: 46%; Activity [17]: 54.1%; Activity [18]: 50.8%; Activity [19]: 63.6%; Activity [20]: 95.1%; Activity [21]: 42.5%
13 | CC(C)(c1ccc(OCC2CCN(S(C)(=O)=O)CC2)cc1)c1cc(Cl)c(OCC2CCN(C(=O)CCCCCNc3ccc4c(c3)C(=O)N(C3CCC(=O)NC3=O)C4=O)CC2)c(C#N)c1 (stereo unspecified) | < 5 | 34.5 | 95.6 | 96.7 | 70.6 | 71.5 | < 5 | 40.6 | 78 | 71.9 | –
14 | CC(C)(c1ccc(OCC2CN(S(C)(=O)=O)C2)cc1)c1cc(Cl)c(OCC2CCN(C(=O)CCCCCNc3ccc4c(c3)C(=O)N(C3CCC(=O)NC3=O)C4=O)CC2)c(C#N)c1 (stereo unspecified) | < 5 | 75.6 | 93.2 | 96.8 | 73.9 | 51.3 | 53.6 | 48 | 78.3 | 81.2 | –
